The values below come from PubChem BioAssay AID238 (DTP/NCI, 2004).

Structures are written as SMILES. Where “and” joins values, the source holds several entries; their conditions need not be identical. Identical values can stand only once. Toxic doses and inconclusive results are not listed.

This assay concerns CAF1 mice, leiomyosarcoma No.2 ip, survival T/C%. Put plainly: NCI In Vivo Anticancer Drug Screen. Data for tumor model Leiomyosarcoma (No. 2) (intraperitoneal) in CAF1 mice. As to conditions: endpoint: mean survival time, schedule: Q01DX010 (ip), higher = longer survival. As for the experimental part:
The antitumor activity of compounds was measured in mice bearing transplantable tumors. Survival or tumor size were measured and the results are expressed as the measurement made in the treated group (T) divided by the measurement made in the vehicle treated control group (C). The tumor model used in this assay is Leiomyosarcoma (No. 2) (intraperitoneal) in CAF1 mice

[1] abbreviates: dose: 2.0 mg/kg/injection, vehicle: saline.
Setting [2] is: dose: 8.0 mg/kg/injection, vehicle: saline.

Turning to `Nc1nc(N)c2nc(CNc3ccc(C(=O)NC(CCC(=O)O)C(=O)O)cc3)cnc2n1` (stereo unspecified), the T/C runs as follows: (dose: 0.03 mg/kg/injection, vehicle: other) 103 % of control and 110 % of control; (dose: 0.05 mg/kg/injection, vehicle: other) 106 % of control; (dose: 0.1 mg/kg/injection, vehicle: other) 106 % of control and 107 % of control; (dose: 0.2 mg/kg/injection, vehicle: other) 110 % of control.
Turning to `O=C(Nc1ccc(NC2=NCCN2)cc1)c1ccc(C(=O)Nc2ccc(NC3=NCCN3)cc2)cc1`, the T/C is 103 % of control and 123 % of control under setting [1]; 123 % of control under setting [2]; 107 % of control (dose: 16.0 mg/kg/injection, vehicle: saline).
As to `Nc1nc(=S)c2ncn(C3OC(CO)C(O)C3O)c2[nH]1` (stereo unspecified), the T/C by setting is: (dose: 1.0 mg/kg/injection, vehicle: saline) 258 % of control; under setting [1], 197 % of control and 204 % of control; (dose: 4.0 mg/kg/injection, vehicle: saline) 118 % of control; under setting [2], 90 % of control.
